# Experimental data as given in US20230085307A1, “PYRIDAZINONE COMPOUND AND HERBICIDE” (NISSAN CHEMICAL CORPORATION, priority 2019, published 2023).
# Tests used:
# blackgrass [1] = assay: Test Example 5: herbicidal effect by foliage application, plastic box (Table 20, symbol J); assay type: in vivo, blackgrass (Alopecurus myosuroides); conditions: foliage application, 320 g/ha, evaluated three weeks after application
# Summary of the method: (§1)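 Foliar spray test: emulsion formulation diluted in water to a set application rate, sprayed onto 14-day-old plants raised in diluvial soil at 25° C to 30° C under glass. Both herbicidal effect and crop effect rated visually three weeks later.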
# barnyard grass [2] = assay: Test Example 4: herbicidal effect by soil treatment (Table 19, symbol H); assay type: in vivo, barnyard grass (Echinochloa crus-galli)
# Summary of the method: (§2)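 Step 1: sow seeds in sterilized diluvial soil, cover ~1.5 cm. Step 2: spray diluted emulsion onto soil surface at predetermined rate. Step 3: greenhouse, 25–30° C, three weeks. Step 4: grade effect on each plant by earlier criteria.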
# chickweed = assay: Test Example 4: herbicidal effect by soil treatment (Table 19, symbol P); assay type: in vivo, common chickweed (Stellaria media)
# Summary of the method: as §2
# barnyard grass [3] = assay: Test Example 5: herbicidal effect by foliage application, plastic box (Table 20, symbol H); assay type: in vivo, barnyard grass (Echinochloa crus-galli); conditions: foliage application, 320 g/ha, evaluated three weeks after application
# Summary of the method: as §1
# lambsquarters = assay: Test Example 4: herbicidal effect by soil treatment (Table 19, symbol O); assay type: in vivo, lambsquarters (Chenopodium album)
# Summary of the method: as §2
# southern crabgrass = assay: Test Example 4: herbicidal effect by soil treatment (Table 19, symbol F); assay type: in vivo, southern crabgrass (Digitaria ciliaris)
# Summary of the method: as §2
# redroot pigweed [4] = assay: Test Example 4: herbicidal effect by soil treatment (Table 19, symbol N); assay type: in vivo, redroot pigweed (Amaranthus retroflexus)
# Summary of the method: as §2
# redroot pigweed [5] = assay: Test Example 5: herbicidal effect by foliage application, plastic box (Table 20, symbol N); assay type: in vivo, redroot pigweed (Amaranthus retroflexus); conditions: foliage application, 320 g/ha, evaluated three weeks after application
# Summary of the method: as §1
# barnyard grass [6] = assay: Test Example 3: herbicidal effect by foliage application, Wagner pot (Table 18, symbol H); assay type: in vivo, barnyard grass (Echinochloa crus-galli)
# Summary of the method: (§3)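 Plants were sown in alluvial soil held under 0.1–0.5 cm standing water and grown 14 days in a greenhouse at 25–30 °C. An emulsifiable formulation, water-diluted to the set dose, was then sprayed onto the foliage, and effects were scored three weeks later using previously defined criteria.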
# velvetleaf = assay: Test Example 5: herbicidal effect by foliage application, plastic box (Table 20, symbol M); assay type: in vivo, velvetleaf (Abutilon theophrasti); conditions: foliage application, 320 g/ha, evaluated three weeks after application
# Summary of the method: as §1
# wild oat = assay: Test Example 5: herbicidal effect by foliage application, plastic box (Table 20, symbol I); assay type: in vivo, wild oat (Avena fatua); conditions: foliage application, 320 g/ha, evaluated three weeks after application
# Summary of the method: as §1
# Italian ryegrass = assay: Test Example 5: herbicidal effect by foliage application, plastic box (Table 20, symbol K); assay type: in vivo, Italian ryegrass (Lolium multiflorum); conditions: foliage application, 320 g/ha, evaluated three weeks after application
# Summary of the method: as §1
# Chinese sprangletop = assay: Test Example 3: herbicidal effect by foliage application, Wagner pot (Table 18, symbol D); assay type: in vivo, chinese sprangletop (Leptochloa chinensis)
# Summary of the method: as §3
# blackgrass [7] = assay: Test Example 4: herbicidal effect by soil treatment (Table 19, symbol J); assay type: in vivo, blackgrass (Alopecurus myosuroides)
# Summary of the method: as §2
# persian speedwell = assay: Test Example 5: herbicidal effect by foliage application, plastic box (Table 20, symbol R); assay type: in vivo, Persian speedwell (Veronica persica); conditions: foliage application, 320 g/ha, evaluated three weeks after application
# Summary of the method: as §1
# late watergrass = assay: Test Example 2: herbicidal activity, application during weed generation under submerged conditions (Table 17, symbol A); assay type: in vivo, late watergrass (Echinochloa oryzicola); conditions: AAH 320 g/ha; application during weed generation, submerged conditions
# Summary of the method: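 Mixed weed seedlings in alluvial soil under a 4 cm water layer, greenhouse-grown at 25–30° C. Compound given as a diluted emulsion into the floodwater at the 1–2 leaf stage; response graded after three weeks.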
# [8] = amount of applied herbicide 320 g/ha
Compound,herbicidal effect on J: blackgrass (blackgrass [1]),herbicidal effect on H: barnyard grass (barnyard grass [3]),herbicidal effect on N: redroot pigweed (redroot pigweed [5]),herbicidal effect on M: velvetleaf (velvetleaf),herbicidal effect on I: wild oat (wild oat),herbicidal effect on K: Italian ryegrass (Italian ryegrass),herbicidal effect on R: persian speedwell (persian speedwell),"herbicidal effect rating, A: late watergrass (late watergrass)",further results
Cc1nn(C)c(=O)c(-c2c(-c3ccc4c(c3)OCCO4)sc3ccc(F)cc23)c1O [2-092],4 (Herbicidal rate of 70% or more and less than 90%),5 (Herbicidal rate of 90% or more (almost completely withered)),5 (Herbicidal rate of 90% or more (almost completely withered)),5 (Herbicidal rate of 90% or more (almost completely withered)),3 (Herbicidal rate of 40% or more and less than 70%),4 (Herbicidal rate of 70% or more and less than 90%),5 (Herbicidal rate of 90% or more (almost completely withered)),0 (Herbicidal rate of 5% or less (almost no effect)),"herbicidal effect rating, H: barnyard grass (barnyard grass [2]; 320 g/ha): 3 (Herbicidal rate of 40% or more and less than 70%); herbicidal effect rating, P: chickweed (chickweed; 320 g/ha): 4 (Herbicidal rate of 70% or more and less than 90%); herbicidal effect rating, O: lambsquarters (lambsquarters; 320 g/ha): 5 (Herbicidal rate of 90% or more (almost completely withered)); herbicidal effect rating, F: southern crabgrass (southern crabgrass; 320 g/ha): 2 (Herbicidal rate of 20% or more and less than 40%); herbicidal effect rating, N: redroot pigweed (redroot pigweed [4]; 320 g/ha): 4 (Herbicidal rate of 70% or more and less than 90%); herbicidal effect on H (barnyard grass), rating 0-5 (barnyard grass [6]; 320 g/ha): 5 (Herbicidal rate of 90% or more (almost completely withered)); herbicidal effect on D (Chinese sprangletop), rating 0-5 (Chinese sprangletop; 320 g/ha): 4 (Herbicidal rate of 70% or more and less than 90%); herbicidal effect rating, J: blackgrass (blackgrass [7]; 320 g/ha): 0 (Herbicidal rate of 5% or less (almost no effect))"
Cc1nn(C)c(=O)c(-c2c(-c3ccc(C(F)(F)F)cc3)sc3ccc(Cl)cc23)c1O [2-111],5 (Herbicidal rate of 90% or more (almost completely withered)),4 (Herbicidal rate of 70% or more and less than 90%),5 (Herbicidal rate of 90% or more (almost completely withered)),3 (Herbicidal rate of 40% or more and less than 70%),0 (Herbicidal rate of 5% or less (almost no effect)),3 (Herbicidal rate of 40% or more and less than 70%),5 (Herbicidal rate of 90% or more (almost completely withered)),2 (Herbicidal rate of 20% or more and less than 40%),"H: barnyard grass, herbicidal effect rating (barnyard grass [2]; [8]): 0 (Herbicidal rate of 5% or less (almost no effect)); P: chickweed, herbicidal effect rating (chickweed; [8]): 0 (Herbicidal rate of 5% or less (almost no effect)); O: lambsquarters, herbicidal effect rating (lambsquarters; [8]): 4 (Herbicidal rate of 70% or more and less than 90%); F: southern crabgrass, herbicidal effect rating (southern crabgrass; [8]): 0 (Herbicidal rate of 5% or less (almost no effect)); N: redroot pigweed, herbicidal effect rating (redroot pigweed [4]; [8]): 5 (Herbicidal rate of 90% or more (almost completely withered)); herbicidal effect on H: barnyard grass (barnyard grass [6]; [8]): 4 (Herbicidal rate of 70% or more and less than 90%); herbicidal effect on D: Chinese sprangletop (Chinese sprangletop; [8]): 2 (Herbicidal rate of 20% or more and less than 40%); J: blackgrass, herbicidal effect rating (blackgrass [7]; [8]): 5 (Herbicidal rate of 90% or more (almost completely withered))"
